For 14 compounds, IC50 results are on record in patent US10016406B2, “Indazole inhibitors of the WNT signal pathway and therapeutic uses thereof” (Samumed, LLC, priority 2009, dated 2018).

The test system of the assay is Wnt. The experiment in a line: Wnt reporter screening assay: SW480 cells stably transduced with SP5 promoter-firefly luciferase lentiviral construct. It counts as cell-based. The following applies: Homo sapiens, SW480 colon cancer cells, 24 h after compound addition, normalized to DMSO, read-out: Wnt inhibition, IC50. An excerpt: Another screening assay for Wnt activity is described as follows. Reporter cell lines can be generated by stably transducing cells of cancer cell lines (e.g., colon cancer) with a lentiviral construct that include a wnt-responsive promoter driving expression of the firefly luciferase gene.
Lentiviral constructs can be made in which the SP5 promoter, a promoter having eight TCF/LEF binding sites derived from the SP5 promoter, is linked upstream of the firefly luciferase gene. The lentiviral constructs can also include a hygromycin resistance gene as a selectable marker. The SP5 promoter construct can be used to transduce SW480 cells, a colon cancer cell line having a mutated APC gene that generates a truncated APC protein, leading to de-regulated accumulation of β-catenin.
Cultured SW480 cells bearing a reporter construct can be distributed at approximately 10,000 cells per well into 384 well multiwell plates. Compounds from a small molecule compound library can then be added to the wells in half-log dilutions using a three micromolar top concentration. A series of control wells for each cell type receive only buffer and compound solvent. Twenty-four hours after the addition of compound, reporter activity for luciferases can be assayed, for example, by addition of the BrightGlo luminescence reagent (Promega) and the Victor3 plate reader (Perkin Elmer). Readings can be normalized to DMSO only treated cells, and normalized activities can then be used in the IC50 calculations.
In general, IC50 refers to the midpoint of a concentration-inhibition curve. Consider `O=C(NC1CCNCC1)c1cncc(-c2ccc3[nH]nc(-c4nc5ccncc5[nH]4)c3c2)c1` [Compound 1, 5-(3-(3H-imidazo[4,5-c]pyridin-2-yl)-1H-indazol-5-yl)-N-(piperidin-4-yl)nicotinamide], for which the IC50 was over 10000 nM. For `O=C(NCC1CCCCC1)c1cncc(-c2ccc3[nH]nc(-c4nc5ccncc5[nH]4)c3c2)c1` [Compound 2, 5-(3-(3H-imidazo[4,5-c]pyridin-2-yl)-1H-indazol-5-yl)-N-(cyclohexylmethyl)nicotinamide], the IC50 is over 10000 nM. `O=C(NCC1CC1)c1cncc(-c2ccc3[nH]nc(-c4nc5c(-c6cccnc6)cncc5[nH]4)c3c2)c1` [Compound 3, N-(cyclopropylmethyl)-5-(3-(7-(pyridin-3-yl)-3H-imidazo[4,5-c]pyridin-2-yl)-1H-indazol-5-yl)nicotinamide]: the IC50 was over 10000 nM. As to `CCC(=O)Nc1cncc(-c2ccc3[nH]nc(-c4nc5c(-c6cccnc6)cncc5[nH]4)c3c2)c1` [Compound 4, N-(5-(3-(7-(pyridin-3-yl)-3H-imidazo[4,5-c]pyridin-2-yl)-1H-indazol-5-yl)pyridin-3-yl)propionamide], the IC50 lay within 29 to 50 nM.

For the compound `CC(C)C(=O)Nc1cncc(-c2ccc3[nH]nc(-c4nc5c(-c6cccnc6)cncc5[nH]4)c3c2)c1` [Compound 11, N-(5-(3-(7-(pyridin-3-yl)-3H-imidazo[4,5-c]pyridin-2-yl)-1H-indazol-5-yl)pyridin-3-yl)isobutyramide], the IC50 turned out to be 4 nM. To `O=C(Nc1cncc(-c2ccc3[nH]nc(-c4nc5c(-c6cccnc6)cncc5[nH]4)c3c2)c1)C1CC1` [Compound 12, N-(5-(3-(7-(pyridin-3-yl)-3H-imidazo[4,5-c]pyridin-2-yl)-1H-indazol-5-yl)pyridin-3-yl)cyclopropanecarboxamide] belongs 26 to 35 nM; to `CC(C)CC(=O)Nc1cncc(-c2ccc3[nH]nc(-c4nc5c(-c6cccnc6)cncc5[nH]4)c3c2)c1` [Compound 15, 3-methyl-N-(5-(3-(7-(pyridin-3-yl)-3H-imidazo[4,5-c]pyridin-2-yl)-1H-indazol-5-yl)pyridin-3-yl)butanamide], 5.6 nM. On to `O=C(Nc1cncc(-c2ccc3[nH]nc(-c4nc5c(-c6cccnc6)cncc5[nH]4)c3c2)c1)c1ccccc1` [Compound 16, N-(5-(3-(7-(pyridin-3-yl)-3H-imidazo[4,5-c]pyridin-2-yl)-1H-indazol-5-yl)pyridin-3-yl)benzamide], for which the IC50 was 380 to 1170 nM. To `CC(C)(C)C(=O)Nc1cncc(-c2ccc3[nH]nc(-c4nc5c(-c6cccnc6)cncc5[nH]4)c3c2)c1` [Compound 17, N-(5-(3-(7-(pyridin-3-yl)-3H-imidazo[4,5-c]pyridin-2-yl)-1H-indazol-5-yl)pyridin-3-yl)pivalamide] belongs 32 to 50 nM; to `CC(C)(C)CC(=O)Nc1cncc(-c2ccc3[nH]nc(-c4nc5c(-c6cccnc6)cncc5[nH]4)c3c2)c1` [Compound 18, 3,3-dimethyl-N-(5-(3-(7-(pyridin-3-yl)-3H-imidazo[4,5-c]pyridin-2-yl)-1H-indazol-5-yl)pyridin-3-yl)butanamide], 21 to 39 nM; to `O=C(Nc1cncc(-c2ccc3[nH]nc(-c4nc5c(-c6cccnc6)cncc5[nH]4)c3c2)c1)C1CCCCC1` [Compound 19, N-(5-(3-(7-(pyridin-3-yl)-3H-imidazo[4,5-c]pyridin-2-yl)-1H-indazol-5-yl)pyridin-3-yl)cyclohexanecarboxamide], 86 to 206 nM. For the compound `CCCC(=O)Nc1cncc(-c2ccc3[nH]nc(-c4nc5c(-c6cccnc6)cncc5[nH]4)c3c2)c1` [Compound 20, N-(5-(3-(7-(pyridin-3-yl)-3H-imidazo[4,5-c]pyridin-2-yl)-1H-indazol-5-yl)pyridin-3-yl)butyramide], the IC50 was 63 nM.

Regarding `O=C(Nc1cncc(-c2ccc3[nH]nc(-c4nc5c(-c6cccnc6)cncc5[nH]4)c3c2)c1)C1CCC1` [Compound 21, N-(5-(3-(7-(pyridin-3-yl)-3H-imidazo[4,5-c]pyridin-2-yl)-1H-indazol-5-yl)pyridin-3-yl)cyclobutanecarboxamide], the IC50 is 29 nM.

As to `CCCCC(=O)Nc1cncc(-c2ccc3[nH]nc(-c4nc5c(-c6cccnc6)cncc5[nH]4)c3c2)c1` [Compound 23, N-(5-(3-(7-(pyridin-3-yl)-3H-imidazo[4,5-c]pyridin-2-yl)-1H-indazol-5-yl)pyridin-3-yl)pentanamide], the 50% inhibitory concentration (IC50) was in the range of 34 to 64 nM.
